Measured values as given in patent US20220395500A1, “SMALL MOLECULE ACTIVATORS OF INTERFERON REGULATORY FACTOR 3 AND METHODS OF USE THEREOF” (Neuralexo, Inc., priority 2020, published 2022).
pEC50: −log10 of the molar value. Like-named read-outs stand apart in the source and are kept apart here.

Tests used:
[1] = system: IRF-Lucia luciferase reporter (ISRE) in THP1-Dual cells; test: THP1-Dual IRF-Lucia luciferase reporter assay (ISRE activation); type: cell-based, human; conditions: for pEC50: Homo sapiens, THP1-Dual, read-out: THP1 IRF EC50; for Average ISRE/NFκB (Range) / Average ISRE % Activation: human THP1 pilot screen, 10 μM, 3 screens; for Average ISRE % Activation: 24 hours, percent of LPS activation signal +/− SD
Protocol: THP1 Dual (InvivoGen) cell suspensions were cultured in RPMI 1640 (Hyclone, Logan, Utah) supplemented with 10% fetal bovine serum (Hyclone), 100 U/mL Normocin (Invivogen), and 50 U/mL PenStrep (Gibco, Dublin, Ireland) between a density of 7·10^5-2·10^6 cells/mL. Every other passage, media was supplemented with 5 U/mL Blasticidin and 100 U/mL Zeocin to maintain the expression constructs. White, flat-bottom 384-well plates (Greiner, Kremsmunster, Austria, 781080) were seeded with 2.5·10^4 cells/well in a total of 50 μL media containing 5 ng/mL phorbolmyristic acid (PMA) using a Matrix WellMate (Thermo Scientific) dispenser. After 48 hours of incubation at 37° C., media was removed using a BioTek ELx405 CW plate washer set to aspirate and wash each well three times with 65 μL 1×PBS. Plates were reloaded with 50 μL media without PMA and treatments added. Lipopolysaccharide in dimethylsulfoxide (DMSO) was transferred to control wells using a HP D300 microdispenser to a final concentration of 313 ng/mL. Compounds from chemical library plates were copied using a Sciclone (Caliper LifeSciences) mounted with a 384-pin transfer tool to obtain a final concentration of 10 μM. After incubation with treatments for 24 hours, 10 μL of supernatant media from each well was transferred into a white, flat-bottom 384-well plate for luminescence readout and a black-walled, clear flat-bottom 384-well plate for absorbance readout.
Specifically, to enable screening of novel chemical entities (NCEs) in a larger screening effort, a robust high-throughput cell-based assay system for primary hit identification of ISRE activators based on the above-mentioned target validation was desired. Human ISRE activity was verified using a THP-1 monocyte line containing the NF-κB-SEAP and IRF-Lucia luciferase dual reporter (THP1-Dual; Invivogen) that features two reporter genes, SEAP (secreted embryonic alkaline phosphatase) and Lucia luciferase, thereby enabling the simultaneous study of the NF-κB and IRF signalling pathways. The Lucia luciferase reporter is under the control of an ISG54 (interferon-stimulated gene) minimal promoter in conjunction with five IFN-stimulated response elements. The SEAP gene is driven by an IFN-β minimal promoter fused to five copies of the NF-κB consensus transcriptional response element and three copies of the c-Rel binding site. Both reporter proteins are readily measurable in the cell culture supernatant when using QUANTI-LUC™ and QUANTI-Blue SEAP detection reagents.
The responsiveness of the human THP-1 Dual cell line was evaluated in an array of assay conditions to obtain sensitive and reproducible results for the activation of IRF and NF-κB reporters. […] All transfer steps are fully automated using high throughput robotic equipment. Briefly, cells are seeded in differentiation medium using a Matrix WellMate fitted with the WellMate Stacker (Thermo Scientific) and incubated at 37° C. with 5% CO2 for 48 h. Following differentiation, cells are washed using a BioTek ELx405 Select CW plate washer and growth medium added with the Matrix WellMate. Programmed control treatments are added to wells using a D300 digital dispenser fitted with T8+ dispense heads (Hewlett Packard) designed to dispense nanoliter quantities of material. Compounds from library plates are added using a pin tool fitted to a Sciclone ALH 3000 Workstation (Caliper Life Sciences) programmed with Maestro v4.4. After treatment, plates are returned to incubators for 24 hours. To measure reporter expression, supernatant is collected using the Sciclone and dispensed into 2 plates: 1) a white 384-well assay plate for Lucia luminescence measurements and 2) a clear-bottom black 384-well assay plate for SEAP absorbance measurements.

[2] = THP1-Dual cytotoxicity (Cell Titer Glo, ATP); type: cell-based, human; conditions: human, THP1-Dual cells, read-out: Thp1 cytotox CC50
Source text: FIG. 9C is a CC50 (50% cytotoxic concentration) graph of AV-C dependent IRF activation in THP1-Dual cells, determined with an 8-point dose response experiment. Cell viability was monitored based on quantitation of ATP present, as an indicator of metabolically active cells, where luminescence is proportional to the amount of ATP present, using Cell-Titer Glo (Promega).
The OTRADI Small Molecule Library of approximately 246,000 diverse compounds (see below for description) was screened using the THP1-Dual based HTS platform described above. All transfer steps in the screen are fully automated, thus reducing variability. Primary screening included a single data point or dose for each molecule. After data normalization was applied for each assay run, “hit” selection was performed on the plates that pass the quality control (QC) criterion. Hits were defined as samples having values above the activity cutoff determined based on noise level of the assay to reduce false positive rates. In the pilot study discussed above this activity value was >3σ above the ISRE mean with the added criteria of NFκB activation being lower than […] from the mean to identify IRF selective compounds. The ratio of ISRE:NFκB activity was also calculated as a selectivity index for prioritizing hit selection. Primary hits underwent secondary screening to determine the 50% effective concentration (EC50) and 50% cytotoxic concentration (CC50) of these agents using an 8-point dose-response curve in the human THP1-Dual cells. Cytotoxicity was measured in the plate using Cell Titer Glo (Promega). Identified candidate compounds were further screened (orthogonal screen) for cross species activity in the validated mouse J774-Dual assay using an 8-point dose-response format to determine EC50 and CC50 values as well as ISRE:NFκB ratios. A general process flow for the experimental design laid out above is depicted at FIG. 12.

J774-Dual cytotoxicity = type: cell-based, mouse; conditions: mouse, J774-Dual cells, read-out: J774 cytotox CC50
Protocol: The OTRADI Small Molecule Library of approximately 246,000 diverse compounds (see below for description) was screened using the THP1-Dual based HTS platform described above. All transfer steps in the screen are fully automated, thus reducing variability. Primary screening included a single data point or dose for each molecule. After data normalization was applied for each assay run, “hit” selection was performed on the plates that pass the quality control (QC) criterion. Hits were defined as samples having values above the activity cutoff determined based on noise level of the assay to reduce false positive rates. […] The ratio of ISRE:NFκB activity was also calculated as a selectivity index for prioritizing hit selection. Primary hits underwent secondary screening to determine the 50% effective concentration (EC50) and 50% cytotoxic concentration (CC50) of these agents using an 8-point dose-response curve in the human THP1-Dual cells. Cytotoxicity was measured in the plate using Cell Titer Glo (Promega). Identified candidate compounds were further screened (orthogonal screen) for cross species activity in the validated mouse J774-Dual assay using an 8-point dose-response format to determine EC50 and CC50 values as well as ISRE:NFκB ratios. A general process flow for the experimental design laid out above is depicted at FIG. 12.

[3] = Human Reporter Cell Line, 8-point dose response

Compound	pEC50 ([1]; Human Reporter Cell Line THP1)	CC50 ([2]; Human Reporter Cell Line THP1) [µM]	CC50 (J774-Dual cytotoxicity; Mouse Reporter Cell Line J774) [µM]	also measured
Cc1ccccc1C(=O)N1CCN(c2ccc(NC(=O)c3ccc(OCc4ccccc4)cc3)cc2)CC1 [NA-52]				pEC50 [1, 3]: 5.85; CC50 ([2]; Human Reporter Cell Line): > 25 µM; CC50 (J774-Dual cytotoxicity; Mouse Reporter Cell Line): > 25 µM
O=C(Nc1ccc(N2CCN(C(=O)c3ccccc3)CC2)cc1)c1ccc(-c2cccnc2)cc1 [NA-53]				pEC50 [1, 3]: ~5.83; CC50 ([2]; Human Reporter Cell Line): 12.3 µM; CC50 (J774-Dual cytotoxicity; Mouse Reporter Cell Line): 29.2 µM
CC(C)c1ccc(C(=O)Nc2ccc(N3CCN(C(=O)c4ccco4)CC3)cc2)cc1 [NA-4]				pEC50 [1, 3]: ~4.88; CC50 ([2]; Human Reporter Cell Line): 37.8 µM; CC50 (J774-Dual cytotoxicity; Mouse Reporter Cell Line): > 25 µM
O=C(Nc1ccc(N2CCN(C(=O)c3cccs3)CC2)cc1)c1ccc(Br)c2ncccc12 [NA-18]				pEC50 [1, 3]: 5.51; CC50 ([2]; Human Reporter Cell Line): > 25 µM; CC50 (J774-Dual cytotoxicity; Mouse Reporter Cell Line): > 25 µM
O=C(Nc1ccc(N2CCN(C(=O)c3cccs3)CC2)cc1)c1cc(Cl)ccc1Cl [NA-43]				pEC50 [1, 3]: ~4.97; CC50 ([2]; Human Reporter Cell Line): > 25 µM; CC50 (J774-Dual cytotoxicity; Mouse Reporter Cell Line): > 25 µM
COC1=CC(=O)C(O)=C/C1=C\C=C\c1ccccc1 [OTR-0001624-001 (Obtusaquinone), Obtusaquinone, reference compound]				Average ISRE/NFκB (Range) [1]: 0.2 (0.2-0.3); Average ISRE % Activation [1]: 1.7 +/− 0.6%
O=C(Nc1ccc(N2CCN(C(=O)c3cccs3)CC2)cc1)c1ccc(OCc2cccnc2)cc1 [NA-61]				pEC50 [1, 3]: 5.64
Cc1ccc(-c2nc3cc(Cl)ccc3o2)cc1NC(=O)/C=C/c1cccc([N+](=O)[O-])c1 [ND-99]		> 25	> 25	
Cc1ccc(-c2nc3cc(C(C)C)ccc3o2)cc1NC(=O)c1ccc(Cl)cc1 [ND-53]		> 25	> 25	
Cc1ccc(-c2nc3cc(C(C)C)ccc3o2)cc1NC(=O)c1cc2ccccc2o1 [ND-12]		47.6	> 25	
Cc1ccc(-c2nc3cc(NC(=O)c4ccc(C)c([N+](=O)[O-])c4)ccc3o2)cc1 [ND-49]		5.52	> 25	
COc1ccc(C(=O)Nc2ccc(OC)cc2OC)cc1 [ND-78]		> 25	> 25	
O=C(Nc1ccc(N2CCN(C(=O)c3cccs3)CC2)cc1)c1ccc(N2CCCCC2)c([N+](=O)[O-])c1 [NA-70]				CC50 ([2]; Human Reporter Cell Line): > 10 µM; CC50 (J774-Dual cytotoxicity; Mouse Reporter Cell Line): > 10 µM
Cc1ccc(-c2nc3cc(C(C)C)ccc3o2)cc1NC(=O)c1ccc(F)c([N+](=O)[O-])c1 [ND-54]		6.84	> 25	
Cc1cc2nc(-c3ccc(C)c(N)c3)oc2cc1C [ND-59]		> 25	> 25	
O=C(Nc1ccc(-c2ccccc2)cc1)Nc1ccc(N2CCN(C(=O)c3cccs3)CC2)cc1 [NA-72]				CC50 ([2]; Human Reporter Cell Line): > 10 µM; CC50 (J774-Dual cytotoxicity; Mouse Reporter Cell Line): > 10 µM
Methapyrilene Hydrochloride [reference compound]				Average ISRE/NFκB (Range) [1]: 1.4 (0.4-2.3)
CCOc1ccc(C(=O)Nc2ccc(N3CCN(C(=O)c4cccs4)CC3)c(Cl)c2)cc1Br [NA-27]				CC50 ([2]; Human Reporter Cell Line): > 25 µM; CC50 (J774-Dual cytotoxicity; Mouse Reporter Cell Line): > 25 µM
COc1ccc(C(=O)Nc2cc(-c3nc4cc(C(C)C)ccc4o3)ccc2C)cc1 [ND-10]		> 25	> 25	
CCN(CC)CCCC(C)Nc1c2ccc(Cl)cc2nc2ccc(OC)cc12.Cl.Cl (stereo not drawn) [Quinacrine Hydrochloride, reference compound]				Average ISRE/NFκB (Range) [1]: 1.4 (1.0-2.0); Average ISRE % Activation [1]: 5.7 +/− 2.9%
O=C(Nc1ccc(N2CCN(C(=O)c3cccs3)CC2)cc1)c1ccc2c(c1)OCO2 [NA-12]				CC50 ([2]; Human Reporter Cell Line): > 25 µM; CC50 (J774-Dual cytotoxicity; Mouse Reporter Cell Line): > 25 µM

The next lines start with results.

pEC50 ([1]; Human Reporter Cell Line THP1)	Compound	CC50 ([2]; Human Reporter Cell Line THP1) [µM]	CC50 (J774-Dual cytotoxicity; Mouse Reporter Cell Line J774) [µM]	also measured
~6.15	Cc1cccc([C@H](C)c2cnc[nH]2)c1C [ND-76]	> 25	> 25	
~5.20	COc1ccc(C(=O)Nc2cc(-c3nc4cc(C)c(C)cc4o3)ccc2C)cc1N [ND-60]	> 25	> 25	
4.87	COc1ccc(C(=O)Nc2nc(-c3cc4ccccc4oc3=O)co2)c2ccccc12 [ND-18]			
5.29	COc1ccc(C(=O)Nc2ccc3oc(-c4cccnc4)nc3c2)cc1[N+](=O)[O-] [ND-43]	20.3	> 25	
~5.23	COc1ccc(-c2nc3cc(C(C)C)ccc3o2)cc1NC(=O)c1cc(C)cc(C)c1 [ND-91]	> 25	> 25	
5.42	O=C(Nc1nc(-c2cc3ccccc3oc2=O)cs1)c1ccc(OCc2ccccc2)cc1 [ND-22]	9.79		
5.49	COc1ccc(C(=O)Nc2cccc(-c3nc4cc(C)c(C)cc4o3)c2)cc1[N+](=O)[O-] [ND-46]	13.1	27.9	
4.93	COc1cc(C(=O)Nc2cc(-c3nc4ccccc4s3)ccc2C)cc(OC)c1OC [ND-37]	> 25	> 25	
5.33	COc1ccc(C(=O)Nc2nc(-c3cc4ccccc4oc3=O)cs2)nc1 [ND-27]	> 25	> 25	
~5.48	COc1ccc(C(=O)Nc2nc(-c3cc4ccccc4oc3=O)cs2)cn1 [ND-28]	> 25	> 25	
4.82	Cc1ccc(-c2nc3ccccc3o2)cc1NC(=O)c1ccc(C)c([N+](=O)[O-])c1 [ND-30]	> 25	> 25	
~5.50	Cc1ccc2nc(-c3ccc(C)c(NC(=O)c4ccc(C)c([N+](=O)[O-])c4)c3)oc2c1 [ND-31]	22.3	> 25	
5.50	Cc1ccc(-c2nc3ncccc3o2)cc1NC(=O)c1cc(Br)ccc1Cl [ND-3]	30.7	> 25	
~4.92	COc1ccc(C(=O)Nc2cc(-c3nc4cc(C)c(C)cc4o3)ccc2Cl)cc1[N+](=O)[O-] [ND-50]	> 25	> 25	
